How the values were obtained:
[1] = Intrinsic dissolution rate; type: physicochemical; details: 37° C.
Description: The intrinsic dissolution rate measurements were carried out in 0.5 cm^2 VanKel die assemblies and a pellet pressure of 1 ton. The dissolution was measured using a Cary 50 spectrophotometer with a stirring rate of 200 rpm. The solution medium was held at 37° C. and measurements were made at 276 nm.

[2] = Thermogravimetry / loss on drying; type: physicochemical; details: for Loss on drying by TG: As is; for Thermogravimetry (weight loss in %): Heating rate 20 K/min
[3] = Bioavailability study of API and salts of API in dogs; type: in vivo, beagle dogs; details: single 100 mg oral dose
Description: For comparison, a microemulsion of the free base was also studied. The study was performed with 4 dogs, weighing 9-15 kg each. A crossover design with a washout period of at least 1 week was used. The dogs were given a single oral dose of 100 mg of test compound, administered under fasting conditions.

[4] = Stability: degradation products (DP) and appearance (color) under stress conditions; type: physicochemical; design: key to CL: A: No change of color; B: Slight discoloration; C: Medium discoloration; D: Strong discoloration; ↓: Suspension; *: Clear solution after stress test; —: no change; x: test not performed
Description: Column: Symmetry C18 (Waters), 3.5 μm, 3×150 mm
Mobile phase: A=0.1% TFA in water; B=acetonitrile
Gradient: 20 to 100% B in 10 minutes
Column temperature: 40° C.
Stability of the three salts with respect to color and degradation products were assessed under various conditions.

[5] = Aqueous solubility of salts in deionized water; details: for solubility / solubility at 48 h: deionized water, water, thermodynamic from solid; for pH: pH of the saturated aqueous solutions
[6] = Hygroscopicity (sorption/desorption); type: physicochemical; details: for Hygroscopicity: After 1 day at 80% r.h. / Hygroscopicity: After 1 day at 95% r.h.: 25° C.
Description: Sorption/desorption isotherms were measured using VTI vapor sorption device (DVS-1). Measurements were carried out at 25° C.

[7] = pH of 1% solution or suspension; type: physicochemical; details: In water
[8] = Determination of solubility at 25° C.; type: physicochemical; details: for solubility: thermodynamic from solid; for Solid: line after Water under Solubility; for Aqueous solubility (in words): summary of Table 8
Description: Excess solids were equilibrated in each solvent for over 24 hours at 25° C.±0.1. Concentration in aqueous supernatant was measured by UV and HPLC and concentrations in organic solvents by gravimetry.

[9] = Polymorphism behavior: crystal modification after 24 hours equilibration; type: physicochemical
Description: A suspension of 6 mg of drug substance in 300 μl of solvent is prepared. Samples are agitated for ≧24 hour at 22° C.±2° C. The solids are collected and investigated for changes.

[10] = Effect of grinding on morphic properties; type: physicochemical
[11] = beagle, dog, plasma, fasting, mean and sd
[12] = 0.1% solutions or suspensions, 1 week 80° C. or 50° C., Methanol
[13] = 0.1% solutions or suspensions, 1 week 80° C. or 50° C., Water
[14] = 1-2 weeks 50° C., tight container, 1% in mixture 1
[15] = 1-2 weeks 50° C., tight container, 1% in mixture 2
[16] = 1-2 weeks 50° C./75% r.h., 1% in mixture 1
[17] = 1-2 weeks 50° C./75% r.h., 1% in mixture 2
[18] = Solid stage, 1 week 80° C., tight container, Bulk (HPLC)
[19] = Solid state, 1 week 80° C./175% r.h, Bulk (HPLC)
[20] = Solid state, 1 week 80° C./, Bulk (HPLC)
[21] = Xenon light (approx. 1200 kLuxh), Bulk (HPLC)
[22] = 0.1N HCl, 25 °C, simulated gastric fluid, read-out: Solubility (approx. at 25° C.) (HPLC)
[23] = acetonitrile, 25 °C, organic solvent or mixture, read-out: Solubility (approx. at 25° C.)
[24] = aqueous medium at pH 3, 25 °C, pH 3, aqueous buffer, read-out: Solubility (approx. at 25° C.) (HPLC)
[25] = aqueous medium at pH 4.5, 25 °C, pH 4.5, aqueous buffer, read-out: Solubility (approx. at 25° C.) (HPLC)
[26] = methanol, 25 °C, organic solvent or mixture, read-out: Solubility (approx. at 25° C.)
[27] = water, 25 °C, water, read-out: Solubility (approx. at 25° C.) (HPLC)

## CS(=O)(=O)O.Cn1c(Nc2ccc(C(F)(F)F)cc2)nc2cc(Oc3ccnc(-c4ncc(C(F)(F)F)[nH]4)c3)ccc21 [Mesylate, {1-methyl-5-[2-(5-trifluoromethyl-1H-imidazol-2-yl)-pyridin-4-yloxy]-1H-benzoimidazol-2-yl}-(4-trifluoromethyl-phenyl)amine methanesulfonate]
[1]; HCl 0.1N
  Intrinsic dissolution rate: 0.056 mg min^−1 cm^−2
[1]; Water
  Intrinsic dissolution rate: 0.0024 mg min^−1 cm^−2
[2]
  Loss on drying by TG: 1.3%
  Thermogravimetry (weight loss in %): 1.3%
[3]; [11]
  AUC(0-inf): 54400 ± 14200 ng·h/mL
  Cmax: 1570 ± 530 ng/mL
  half-life: 1280 ± 780 min
[3]; beagle, dog, plasma, fasting, median
  Tmax: 5 h
[3]; fasting, median
  Tlag: 0.13 h
[3]; relative to an iv dose of 1.25 mg/kg
  Absolute F: 23.7 ± 6.2
[4]; [12]
  CL: A
  DP: 2.7%
[4]; [13]
  CL: A↓
  DP: 0.5%
[4]; [14]
  CL: A
  DP: 0.5%
[4]; [15]
  CL: A
  DP: 0.6%
[4]; [16]
  CL: A
  DP: 2%
[4]; [17]
  CL: A
  DP: 1.2%
[4]; [18]
  CL: A
  DP: 0.5%
[4]; [19]
  DP: 0.8%
[4]; [20]
  CL: A
[4]; Unstressed
  DP: 0.5%
[4]; [21]
  CL: A
  DP: 0.6%
[5]
  solubility: 4 µg/mL
  solubility at 48 h: 774 µg/mL
  pH: 1.992
[6]
  Hygroscopicity from moisture sorption profiles (in words): hygroscopic
  Hygroscopicity: After 1 day at 80% r.h.: 4.0
  Hygroscopicity: After 1 day at 95% r.h.: 13.0
[7]
  pH of 1% solution or suspension: 2.0
[8]; [22]
  solubility: 5700 µg/mL
[8]; [23]
  solubility: 4000 µg/mL
[8]; [24]
  solubility: 0.5 µg/mL
[8]; [25]
  solubility: 0.1 µg/mL
[8]
  Solid: No change
  Aqueous solubility (in words): significantly improves aqueous solubility at all pH levels
[8]; [26]
  solubility: > 50000 µg/mL
[8]; solubility sample at pH 3
  Measured pH: 3.6
[8]; solubility sample in 0.1N HCl
  Measured pH: 1.3
[8]; [27]
  solubility: 70 µg/mL
[9]; 2-propanol
  Crystal modification after 24 hours equilibration (DSC/XRPD/TG): No change
[9]; Acetone
  Crystal modification after 24 hours equilibration (DSC/XRPD/TG): No change
[9]; Acetonitrile
  Crystal modification after 24 hours equilibration (DSC/XRPD/TG): No change
[9]; Ethanol
  Crystal modification after 24 hours equilibration (DSC/XRPD/TG): No change
[9]; Ethyl acetate
  Crystal modification after 24 hours equilibration (DSC/XRPD/TG): No change
[9]; Methanol
  Crystal modification after 24 hours equilibration (DSC/XRPD/TG): No change
[9]; PEG400
  Crystal modification after 24 hours equilibration (DSC/XRPD/TG): No change
[9]; Water
  Crystal modification after 24 hours equilibration (DSC/XRPD/TG): Change
[10]
  Effect of grinding: No change

## Cl.Cn1c(Nc2ccc(C(F)(F)F)cc2)nc2cc(Oc3ccnc(-c4ncc(C(F)(F)F)[nH]4)c3)ccc21 [Hydrochloride, {1-methyl-5-[2-(5-trifluoromethyl-1H-imidazol-2-yl)-pyridin-4-yloxy]-1H-benzoimidazol-2-yl}-(4-trifluoromethyl-phenyl)amine hydrochloride]
[5]
  solubility: 10 µg/mL
  solubility at 48 h: 457 µg/mL
  pH: 2.079

## CCS(=O)(=O)O.Cn1c(Nc2ccc(C(F)(F)F)cc2)nc2cc(Oc3ccnc(-c4ncc(C(F)(F)F)[nH]4)c3)ccc21 [Esylate, {1-methyl-5-[2-(5-trifluoromethyl-1H-imidazol-2-yl)-pyridin-4-yloxy]-1H-benzoimidazol-2-yl}-(4-trifluoromethyl-phenyl)amine ethanesulfonate]
[1]; HCl 0.1N
  Intrinsic dissolution rate: 0.06 mg min^−1 cm^−2
[1]; Water
  Intrinsic dissolution rate: 0.0036 mg min^−1 cm^−2
[2]
  Loss on drying by TG: 2.1%
  Thermogravimetry (weight loss in %): 2.1%
[4]; [12]
  CL: A
  DP: 2.5%
[4]; 0.1% solutions or suspensions, 1 week 80° C. or 50° C., Methanol, listed as esylate
  DP: 2.7%
[4]; [13]
  CL: A↓
  DP: 0.4%
[4]; [14]
  CL: A
  DP: 0.5%
[4]; [15]
  CL: A
  DP: 0.6%
[4]; [16]
  CL: A
  DP: 1.8%
[4]; [17]
  CL: A
  DP: 0.8%
[4]; [18]
  CL: A
  DP: 0.5%
[4]; [19]
  DP: 0.6%
[4]; [20]
  CL: A
[4]; Unstressed
  DP: 0.5%
[4]; [21]
  CL: A
  DP: 0.7%
[6]
  Hygroscopicity from moisture sorption profiles (in words): hygroscopic
  Hygroscopicity: After 1 day at 80% r.h.: 5.3
  Hygroscopicity: After 1 day at 95% r.h.: 14.9
[7]
  pH of 1% solution or suspension: 2.2
[8]; [22]
  solubility: 3700 µg/mL
[8]; [23]
  solubility: 2100 µg/mL
[8]; [24]
  solubility: 2.3 µg/mL
[8]; [25]
  solubility: 3.7 µg/mL
[8]
  Solid: No change
  Aqueous solubility (in words): significantly improves aqueous solubility at all pH levels
[8]; [26]
  solubility: > 50000 µg/mL
[8]; solubility sample in 0.1N HCl
  Measured pH: 1.4
[8]; [27]
  solubility: 60 µg/mL
[9]; 2-propanol
  Crystal modification after 24 hours equilibration (DSC/XRPD/TG): No change
[9]; Acetone
  Crystal modification after 24 hours equilibration (DSC/XRPD/TG): No change
[9]; Acetonitrile
  Crystal modification after 24 hours equilibration (DSC/XRPD/TG): No change
[9]; Ethanol
  Crystal modification after 24 hours equilibration (DSC/XRPD/TG): No change
[9]; Ethyl acetate
  Crystal modification after 24 hours equilibration (DSC/XRPD/TG): No change
[9]; Methanol
  Crystal modification after 24 hours equilibration (DSC/XRPD/TG): No change
[9]; PEG400
  Crystal modification after 24 hours equilibration (DSC/XRPD/TG): No change
[9]; Water
  Crystal modification after 24 hours equilibration (DSC/XRPD/TG): No change
[10]
  Effect of grinding: No change
